According to patent US20220281831A1, “FUSED-GLUTARIMIDE CRBN LIGANDS AND USES THEREOF” (Kymera Therapeutics, Inc., priority 2019, published 2022):

Target: His-tagged CRBN-DDB1 complex (Homo sapiens, UniProt Q96SW2)
Experiment: Time-Resolved Fluorescence Resonance Energy Transfer (TR-FRET / HTRF) CRBN binding assay, displacement of Cy5-labeled thalidomide
Details: His-CRBN-DDB1, Cy5-thalidomide 8 nM, 1 hour room temperature

Chain of His-tagged CRBN-DDB1 complex (Q96SW2 whole entry): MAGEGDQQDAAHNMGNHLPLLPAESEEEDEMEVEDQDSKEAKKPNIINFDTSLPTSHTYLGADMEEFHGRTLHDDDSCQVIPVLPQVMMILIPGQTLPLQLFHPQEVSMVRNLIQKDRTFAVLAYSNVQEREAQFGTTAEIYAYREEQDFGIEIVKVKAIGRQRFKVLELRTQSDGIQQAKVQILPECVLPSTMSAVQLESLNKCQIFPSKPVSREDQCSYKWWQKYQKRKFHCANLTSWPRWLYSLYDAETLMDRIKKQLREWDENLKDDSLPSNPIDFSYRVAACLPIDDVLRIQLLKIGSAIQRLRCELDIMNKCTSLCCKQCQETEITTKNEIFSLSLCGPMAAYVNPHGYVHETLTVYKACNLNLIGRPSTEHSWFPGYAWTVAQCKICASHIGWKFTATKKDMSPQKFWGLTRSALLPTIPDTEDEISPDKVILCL
Chain of His-tagged CRBN-DDB1 complex (Q16531 whole entry partner): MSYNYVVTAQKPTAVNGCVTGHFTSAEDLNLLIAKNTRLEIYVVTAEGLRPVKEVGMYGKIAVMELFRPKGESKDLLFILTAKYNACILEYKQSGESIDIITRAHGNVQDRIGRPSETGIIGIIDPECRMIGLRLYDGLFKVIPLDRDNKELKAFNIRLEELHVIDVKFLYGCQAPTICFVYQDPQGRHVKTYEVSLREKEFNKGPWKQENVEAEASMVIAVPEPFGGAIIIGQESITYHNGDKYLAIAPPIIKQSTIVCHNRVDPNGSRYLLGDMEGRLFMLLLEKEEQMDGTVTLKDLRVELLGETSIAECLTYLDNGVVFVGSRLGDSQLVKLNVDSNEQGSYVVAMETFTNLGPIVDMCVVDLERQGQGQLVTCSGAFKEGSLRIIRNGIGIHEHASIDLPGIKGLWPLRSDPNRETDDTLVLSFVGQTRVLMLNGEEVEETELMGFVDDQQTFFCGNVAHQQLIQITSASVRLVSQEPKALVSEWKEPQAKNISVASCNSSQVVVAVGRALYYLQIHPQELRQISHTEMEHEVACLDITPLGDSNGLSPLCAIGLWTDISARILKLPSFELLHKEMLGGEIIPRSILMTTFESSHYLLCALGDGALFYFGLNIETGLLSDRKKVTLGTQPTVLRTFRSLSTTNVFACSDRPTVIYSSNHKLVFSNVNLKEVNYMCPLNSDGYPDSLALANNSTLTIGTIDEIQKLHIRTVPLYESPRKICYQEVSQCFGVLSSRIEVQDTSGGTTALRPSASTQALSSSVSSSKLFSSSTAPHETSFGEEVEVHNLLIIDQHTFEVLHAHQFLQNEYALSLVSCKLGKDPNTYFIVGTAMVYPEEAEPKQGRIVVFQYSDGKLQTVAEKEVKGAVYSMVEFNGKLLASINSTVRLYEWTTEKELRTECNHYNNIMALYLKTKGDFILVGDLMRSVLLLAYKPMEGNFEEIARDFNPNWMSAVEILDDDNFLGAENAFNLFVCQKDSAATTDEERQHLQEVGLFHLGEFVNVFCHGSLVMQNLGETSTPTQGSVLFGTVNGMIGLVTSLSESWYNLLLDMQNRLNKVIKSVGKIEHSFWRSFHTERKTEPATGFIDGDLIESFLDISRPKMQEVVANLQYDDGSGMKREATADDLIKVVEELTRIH

Structure (SMILES) | IC50
O=C1Cc2cc(F)ccc2C(=O)N1 [Compound I-73, 6-Fluoro-2,4-dihydroisoquinoline-1,3-dione] | 10 to 30 µM
O=C1Cc2ccc(F)cc2C(=O)N1 [Compound I-74, 7-Fluoro-2,4-dihydroisoquinoline-1,3-dione] | 30 to 100 µM
O=C1Cc2cccc(F)c2C(=O)N1 [Compound I-75, 8-Fluoro-2,4-dihydroisoquinoline-1,3-dione] | 10 to 30 µM
Nc1ccc2c(c1)CC(=O)NC2=O [Compound I-77] | 10 to 30 µM
Cc1cccc2c1CC(=O)NC2=O [Compound I-78] | 10 to 30 µM
Cc1ccc2c(c1)CC(=O)NC2=O [Compound I-79] | 30 to 100 µM
COc1cc(F)ccc1N1C[C@@H]2C(=O)NC(=O)[C@@H]2C1 [Compound I-124] | 30 to 100 µM
CCCOc1ccc(N2C[C@@H]3C(=O)NC(=O)[C@@H]3C2)cc1 [Compound I-132] | 30 to 100 µM
CCOC(=O)c1cccc(N2C[C@@H]3C(=O)NC(=O)[C@@H]3C2)c1 [Compound I-133] | 10 to 30 µM
O=C1NC(=O)[C@@H]2CN(c3ccc(Oc4ccccc4)cc3)C[C@H]12 [Compound I-151] | 30 to 100 µM
O=C1NC(=O)[C@@H]2CN(C3CCCC3)C[C@H]12 [Compound I-159] | > 100 µM
Nc1ccc2c(c1)C1(CC(=O)NC1=O)NC2=O (centres unmarked) [Compound I-175] | > 100 µM
O=C1CC2(CCc3ccccc32)C(=O)N1 (centres unmarked) [Compound I-185] | > 100 µM
O=C1CC2(Cc3ccccc3C2)C(=O)N1 [Compound I-186, 1,3-dihydrospiro[indene-2,3′-pyrrolidine]-2′,5′-dione] | 30 to 100 µM
O=C1Cc2cccc(N3CCCCC3=O)c2C(=O)N1 [Compound I-193] | 10 to 30 µM
O=C1Cc2cccc(-n3ccccc3=O)c2C(=O)N1 [Compound I-194] | 10 to 30 µM
O=C1C[C@]2(CCc3c([N+](=O)[O-])cccc32)C(=O)N1 [Compound I-196] | > 100 µM
O=C1C[C@@]2(CCc3c([N+](=O)[O-])cccc32)C(=O)N1 [Compound I-197] | > 100 µM
O=C1Cc2cccc(Oc3cccc(F)c3)c2C(=O)N1 [Compound I-198, 8-(3-Fluorophenoxy)-2,4-dihydroisoquinoline-1,3-dione] | < 10 µM
Cc1cccc(Oc2cccc3c2C(=O)NC(=O)C3)c1 [Compound I-199, 8-(3-Methylphenoxy)-2,4-dihydroisoquinoline-1,3-dione] | < 10 µM

Structure (SMILES) | IC50
O=C1Cc2cccc(Oc3ccccc3F)c2C(=O)N1 [Compound I-200, 8-(2-Fluorophenoxy)-2,4-dihydroisoquinoline-1,3-dione] | < 10 µM
O=C1Cc2cccc(Oc3ccccc3Cl)c2C(=O)N1 [Compound I-202, 8-(2-Chlorophenoxy)-2,4-dihydroisoquinoline-1,3-dione] | < 10 µM
Cc1cc2c(c(Oc3ccccc3)c1)C(=O)NC(=O)C2 [Compound I-203, 6-Methyl-8-phenoxy-2,4-dihydroisoquinoline-1,3-dione] | < 10 µM
CC(C)(C)OC(=O)NCCCCCCCCCc1ccccc1Oc1cccc2c1C(=O)NC(=O)C2 [Compound I-218] | > 100 µM
CC(C)(C)OC(=O)NCCCc1cccc(Oc2cccc3c2C(=O)NC(=O)C3)c1 [Compound I-220] | 10 to 30 µM
CC(C)(C)OC(=O)NCCCC#Cc1cccc(Oc2cccc3c2C(=O)NC(=O)C3)c1 [Compound I-221] | < 10 µM
CC(C)(C)OC(=O)NCCCCCc1cccc(Oc2cccc3c2C(=O)NC(=O)C3)c1 [Compound I-222] | 30 to 100 µM
CC(C)(C)OC(=O)NCCCCCC#Cc1cccc(Oc2cccc3c2C(=O)NC(=O)C3)c1 [Compound I-223] | 30 to 100 µM
CC(C)(C)OC(=O)NCCCCCCCc1cccc(Oc2cccc3c2C(=O)NC(=O)C3)c1 [Compound I-224] | < 10 µM
CC(C)(C)OC(=O)NCCCCCCCC#Cc1cccc(Oc2cccc3c2C(=O)NC(=O)C3)c1 [Compound I-225] | > 100 µM
CC(C)(C)OC(=O)NCCCCCCCCCc1cccc(Oc2cccc3c2C(=O)NC(=O)C3)c1 [Compound I-226] | > 100 µM
CC(C)(C)OC(=O)NCCCc1ccc(Oc2cccc3c2C(=O)NC(=O)C3)cc1 [Compound I-227] | < 10 µM
CC(C)(C)OC(=O)NCCCC#Cc1ccc(Oc2cccc3c2C(=O)NC(=O)C3)cc1 [Compound I-228] | > 100 µM
CC(C)(C)OC(=O)NCCCCCc1ccc(Oc2cccc3c2C(=O)NC(=O)C3)cc1 [Compound I-229] | > 100 µM
CC(C)(C)OC(=O)NCCCCCC#Cc1ccc(Oc2cccc3c2C(=O)NC(=O)C3)cc1 [Compound I-230] | > 100 µM
CC(C)(C)OC(=O)NCCCCCCCc1ccc(Oc2cccc3c2C(=O)NC(=O)C3)cc1 [Compound I-231] | > 100 µM
CC(C)(C)OC(=O)NCCCCCCCC#Cc1ccc(Oc2cccc3c2C(=O)NC(=O)C3)cc1 [Compound I-232] | > 100 µM
CC(C)(C)OC(=O)NCCCCCCCCCc1ccc(Oc2cccc3c2C(=O)NC(=O)C3)cc1 [Compound I-233] | > 100 µM
CC(C)(C)OC(=O)NCCCCCC#Cc1cccc(Oc2cccc3c2C(=O)NC(=O)C3=O)c1 [Compound I-234] | < 10 µM
O=C1Cc2cncc(Oc3ccccc3)c2C(=O)N1 [Compound I-235] | < 10 µM

Target: CRBN-DDB1 (Homo sapiens, UniProt Q96SW2)
Sequence (Q96SW2 whole entry): as the sequence (Q96SW2 whole entry) above
Sequence (Q16531 whole entry partner): as the sequence (Q16531 whole entry partner) above
Experiment: Fluorescence Polarization (FP) CRBN binding assay, probe TM-493 (FAM-BB-100)
Details: CRBN-DDB1, TM-493 probe, 60 min room temperature
Method: Fluorescence Polarization (FP) Assay
Materials: PerkinElmer EnVision 2104 Multilabel Reader, PerkinElmer FITC FP dual emission Label 2100-8060, Corning 384-well microplate #4514, V-CMR-TM-493 (FAM-BB-100), and CRBN-DDB1-180605.
Methods: Dilution buffer (50 mM HEPES-Na pH 7.5, 100 mM NaCl, 2 mM DTT, and 0.005% Tween-20) and compound DMSO dilutions were prepared. 4× compound working solutions were made with 8% DMSO (4×) and 13.8 μL/well of dilution buffer was placed in a new 96-well plate and 1.2 μL/well of above compound DMSO dilutions were added to the wells. 40 nM (4×) TM-493 in dilution buffer was prepared from a 10 μM DMSO stock and 15 μL per well of the TM-493 working solution was transferred into the compound working solution. 160 nM (2×) CRBN-DDB1 working solution was prepared with Dilution Buffer and 10 μL/well were added into a 384-well plate. 10 μL per well of the TM-493/compound mixture were transferred into the 384-well plate. The “positive control” was sample without protein and compound in 2% DMSO. After incubation at room temperature for 60 min, data was collected and read on data on an EnVision with the following setting: Excitation Light (%): 100; Measurement Height: 9.4; G-Factor: 1; Detector Gain 1: 200; Detector Gain 2: 200; Flash Number: 100. Data was processed using GraphPad Prism 7.0
The compound numbers correspond to the compound numbers in Table 1.

Structure (SMILES) | IC50
O=C1Cc2cc(F)ccc2C(=O)N1 [Compound I-73, 6-Fluoro-2,4-dihydroisoquinoline-1,3-dione] | > 100 µM
O=C1Cc2ccc(F)cc2C(=O)N1 [Compound I-74, 7-Fluoro-2,4-dihydroisoquinoline-1,3-dione] | 30 to 100 µM
O=C1Cc2cccc(F)c2C(=O)N1 [Compound I-75, 8-Fluoro-2,4-dihydroisoquinoline-1,3-dione] | 30 to 100 µM
Nc1ccc2c(c1)CC(=O)NC2=O [Compound I-77] | 10 to 30 µM
Cc1cccc2c1CC(=O)NC2=O [Compound I-78] | > 100 µM
Cc1ccc2c(c1)CC(=O)NC2=O [Compound I-79] | > 100 µM
COc1cc(F)ccc1N1C[C@@H]2C(=O)NC(=O)[C@@H]2C1 [Compound I-124] | > 100 µM
CCCOc1ccc(N2C[C@@H]3C(=O)NC(=O)[C@@H]3C2)cc1 [Compound I-132] | > 100 µM
CCOC(=O)c1cccc(N2C[C@@H]3C(=O)NC(=O)[C@@H]3C2)c1 [Compound I-133] | > 100 µM
O=C1NC(=O)[C@@H]2CN(c3ccc(Oc4ccccc4)cc3)C[C@H]12 [Compound I-151] | > 100 µM
O=C1NC(=O)[C@@H]2CN(C3CCCC3)C[C@H]12 [Compound I-159] | > 100 µM
Nc1ccc2c(c1)C1(CC(=O)NC1=O)NC2=O (centres unmarked) [Compound I-175] | > 100 µM
O=C1CC2(CCc3ccccc32)C(=O)N1 (centres unmarked) [Compound I-185] | > 100 µM
O=C1CC2(Cc3ccccc3C2)C(=O)N1 [Compound I-186, 1,3-dihydrospiro[indene-2,3′-pyrrolidine]-2′,5′-dione] | > 100 µM
O=C1Cc2cccc(N3CCCCC3=O)c2C(=O)N1 [Compound I-193] | 30 to 100 µM
O=C1Cc2cccc(-n3ccccc3=O)c2C(=O)N1 [Compound I-194] | 30 to 100 µM
O=C1C[C@]2(CCc3c([N+](=O)[O-])cccc32)C(=O)N1 [Compound I-196] | > 100 µM
O=C1C[C@@]2(CCc3c([N+](=O)[O-])cccc32)C(=O)N1 [Compound I-197] | > 100 µM
O=C1Cc2cccc(Oc3cccc(F)c3)c2C(=O)N1 [Compound I-198, 8-(3-Fluorophenoxy)-2,4-dihydroisoquinoline-1,3-dione] | 10 to 30 µM
Cc1cccc(Oc2cccc3c2C(=O)NC(=O)C3)c1 [Compound I-199, 8-(3-Methylphenoxy)-2,4-dihydroisoquinoline-1,3-dione] | 10 to 30 µM

Structure (SMILES) | IC50
O=C1Cc2cccc(Oc3ccccc3F)c2C(=O)N1 [Compound I-200, 8-(2-Fluorophenoxy)-2,4-dihydroisoquinoline-1,3-dione] | < 10 µM
O=C1Cc2cccc(Oc3ccccc3Cl)c2C(=O)N1 [Compound I-202, 8-(2-Chlorophenoxy)-2,4-dihydroisoquinoline-1,3-dione] | < 10 µM
Cc1cc2c(c(Oc3ccccc3)c1)C(=O)NC(=O)C2 [Compound I-203, 6-Methyl-8-phenoxy-2,4-dihydroisoquinoline-1,3-dione] | < 10 µM
CC(C)(C)OC(=O)NCCCCCCCCCc1ccccc1Oc1cccc2c1C(=O)NC(=O)C2 [Compound I-218] | > 100 µM
CC(C)(C)OC(=O)NCCCc1cccc(Oc2cccc3c2C(=O)NC(=O)C3)c1 [Compound I-220] | 30 to 100 µM
CC(C)(C)OC(=O)NCCCC#Cc1cccc(Oc2cccc3c2C(=O)NC(=O)C3)c1 [Compound I-221] | > 100 µM
CC(C)(C)OC(=O)NCCCCCc1cccc(Oc2cccc3c2C(=O)NC(=O)C3)c1 [Compound I-222] | 30 to 100 µM
CC(C)(C)OC(=O)NCCCCCC#Cc1cccc(Oc2cccc3c2C(=O)NC(=O)C3)c1 [Compound I-223] | 30 to 100 µM
CC(C)(C)OC(=O)NCCCCCCCc1cccc(Oc2cccc3c2C(=O)NC(=O)C3)c1 [Compound I-224] | > 100 µM
CC(C)(C)OC(=O)NCCCCCCCC#Cc1cccc(Oc2cccc3c2C(=O)NC(=O)C3)c1 [Compound I-225] | > 100 µM
CC(C)(C)OC(=O)NCCCCCCCCCc1cccc(Oc2cccc3c2C(=O)NC(=O)C3)c1 [Compound I-226] | > 100 µM
CC(C)(C)OC(=O)NCCCc1ccc(Oc2cccc3c2C(=O)NC(=O)C3)cc1 [Compound I-227] | > 100 µM
CC(C)(C)OC(=O)NCCCC#Cc1ccc(Oc2cccc3c2C(=O)NC(=O)C3)cc1 [Compound I-228] | > 100 µM
CC(C)(C)OC(=O)NCCCCCc1ccc(Oc2cccc3c2C(=O)NC(=O)C3)cc1 [Compound I-229] | > 100 µM
CC(C)(C)OC(=O)NCCCCCC#Cc1ccc(Oc2cccc3c2C(=O)NC(=O)C3)cc1 [Compound I-230] | > 100 µM
CC(C)(C)OC(=O)NCCCCCCCc1ccc(Oc2cccc3c2C(=O)NC(=O)C3)cc1 [Compound I-231] | > 100 µM
CC(C)(C)OC(=O)NCCCCCCCC#Cc1ccc(Oc2cccc3c2C(=O)NC(=O)C3)cc1 [Compound I-232] | > 100 µM
CC(C)(C)OC(=O)NCCCCCCCCCc1ccc(Oc2cccc3c2C(=O)NC(=O)C3)cc1 [Compound I-233] | > 100 µM
CC(C)(C)OC(=O)NCCCCCC#Cc1cccc(Oc2cccc3c2C(=O)NC(=O)C3=O)c1 [Compound I-234] | < 10 µM
O=C1Cc2cncc(Oc3ccccc3)c2C(=O)N1 [Compound I-235] | 10 to 30 µM
